Assay results from patent publication US11229618B2 (Amarin Pharmaceuticals Ireland Limited, priority 2012, dated 2022).

Assay: AAMI 6-week study: essential fatty acid parameters in RBC (gas chromatography)
Assay type: in vivo, human
Conditions: for AA RBC Mean change from Baseline / DHA RBC Mean change from Baseline / AA RBC 1 or 2 g versus 4 g LS Mean / DHA RBC 1 or 2 g versus 4 g LS Mean: AAMI; for AA RBC Mean change from Baseline / DHA RBC Mean change from Baseline: mean (SD); for DGLA 1 or 2 g versus 4 g, LS Mean / DPAn-3 1 or 2 g versus 4 g, LS Mean / EPA/AA 1 or 2 g versus 4 g, LS Mean / DGLA Mean change from Baseline, Mean (SD) / DPAn-3 Mean change from Baseline, Mean (SD) / EPA/AA Mean change from Baseline, Mean (SD) / DGLA Baseline Mean (SD) / DPAn-3 Baseline Mean (SD) / EPA/AA Baseline Mean (SD): RBC
Experimental: A single-center, 6-week, double-blind, randomizes, parallel-group, placebo-controlled, dose-ranging pilot study was performed to evaluate the efficacy, tolerability, and safety of >96% ethyl-EPA in subjects with subjective and objective memory impairment according to generally accepted criteria for Age-Associated Memory Impairment (“AAMI”). The primary objective of the study was to determine the effect of >96% ethyl-EPA 1 g, 2 g, and 4 g daily, compared to placebo, on cognitive performance in subjects with AAMI.
Ninety-four subjects were randomized into one of six groups: 1 g E-EPA daily (n=23), 2 g E-EPA daily (n=24), 4 g E-EPA daily (n=24), 1 g placebo daily (n=7), 2 g placebo daily (n=8), and 4 g placebo daily (n=8). E-EPA was provided as 500 mg soft gel capsules containing>96% E-EPA and 0.2% dl-α-tocopherol as an antioxidant. Placebo capsules contained 467 mg of liquid paraffin and 0.2% dl-α-tocopherol. Ninety-one subjects completed the study. Two subjects in the 2 g E-EPA group and one subject in the 2 g placebo group discontinued the study.
Blood samples (10 mL) were collected at Visit 1 (screening) and at Visits 4, 5 and 6. Analysis was performed by MSR Lipid Analysis, Scottish Crop Research Institute, Dundee, UK. The screening sample acted as baseline for the EFA measurements. Lipid was extracted from plasma, serum and RBC suspensions and converted into fatty acid methyl esters which were analyzed by gas chromatography to give fatty acid profiles as micrograms fatty acid per gram of sample (μgFA/g) and normalized area percent.
RBC and plasma EFA data were collected at baseline, Day 14, 28 and 42 and summarized by visit for each treatment group. Change from baseline and percent change from baseline were also summarized. ANCOVA comparison of ethyl-EPA dose groups and ethyl-EPA versus placebo was performed.

[1] = Ethyl-EPA 1 g versus 4 g, p-value <0.001

CC/C=C\C/C=C\C/C=C\C/C=C\C/C=C\CCCC(=O)OCC [IPE, all-cis eicosa-5,8,11,14,17-pentaenoic acid ethyl ester]
AA RBC Mean change from Baseline (1 g daily, Day 14): −8.1 (21.95) μg/g
DHA RBC Mean change from Baseline (1 g daily, Day 14): −4.6 (9.76) μg/g
AA RBC Mean change from Baseline (1 g daily, Day 28): −17.0 (20.69) μg/g
DHA RBC Mean change from Baseline (1 g daily, Day 28): −6.4 (11.57) μg/g
AA RBC Mean change from Baseline (1 g daily, Day 42): −14.2 (27.69) μg/g
DHA RBC Mean change from Baseline (1 g daily, Day 42): −7.0 (12.20) μg/g
AA RBC 1 or 2 g versus 4 g LS Mean (1 g versus 4 g): 8.4 µg/g
DHA RBC 1 or 2 g versus 4 g LS Mean (1 g versus 4 g): 1.0 µg/g
AA RBC Mean change from Baseline (2 g daily, Day 14): −3.1 (25.84) μg/g
DHA RBC Mean change from Baseline (2 g daily, Day 14): −2.0 (9.46) μg/g
AA RBC Mean change from Baseline (2 g daily, Day 28): −14.1 (26.89) μg/g
DHA RBC Mean change from Baseline (2 g daily, Day 28): −6.2 (9.34) μg/g
AA RBC Mean change from Baseline (2 g daily, Day 42): −18.8 (25.62) μg/g
DHA RBC Mean change from Baseline (2 g daily, Day 42): −6.3 (9.42) μg/g
AA RBC 1 or 2 g versus 4 g LS Mean (2 g versus 4 g): 9.8 µg/g
DHA RBC 1 or 2 g versus 4 g LS Mean (2 g versus 4 g): 1.0 µg/g
AA RBC Mean change from Baseline (4 g daily, Day 14): −15.7 (26.76) μg/g
DHA RBC Mean change from Baseline (4 g daily, Day 14): −6.9 (9.13) μg/g
AA RBC Mean change from Baseline (4 g daily, Day 28): −22.8 (29.56) μg/g
DHA RBC Mean change from Baseline (4 g daily, Day 28): −8.7 (11.63) μg/g
AA RBC Mean change from Baseline (4 g daily, Day 42): −34.4 (31.44) μg/g
DHA RBC Mean change from Baseline (4 g daily, Day 42): −13.8 (13.76) μg/g
DGLA 1 or 2 g versus 4 g, LS Mean (Ethyl-EPA 1 g versus 4 g, p-value 0.027): 1.5 µg/g
DPAn-3 1 or 2 g versus 4 g, LS Mean [1]: -6.2 µg/g
EPA/AA 1 or 2 g versus 4 g, LS Mean [1]: −0.18
DGLA Mean change from Baseline, Mean (SD) (Ethyl-EPA 1 g, Day 14): −2.7 (3.82) μg/g
DPAn-3 Mean change from Baseline, Mean (SD) (Ethyl-EPA 1 g, Day 14): 0.9 (5.03) μg/g
EPA/AA Mean change from Baseline, Mean (SD) (Ethyl-EPA 1 g, Day 14): 0.1 (0.04)
DGLA Mean change from Baseline, Mean (SD) (Ethyl-EPA 1 g, Day 28): −3.8 (3.31) μg/g
DPAn-3 Mean change from Baseline, Mean (SD) (Ethyl-EPA 1 g, Day 28): 3.3 (5.42) μg/g
EPA/AA Mean change from Baseline, Mean (SD) (Ethyl-EPA 1 g, Day 28): 0.1 (0.05)
DGLA Mean change from Baseline, Mean (SD) (Ethyl-EPA 1 g, Day 42): −3.5 (4.51) μg/g
DPAn-3 Mean change from Baseline, Mean (SD) (Ethyl-EPA 1 g, Day 42): 6.5 (6.19) μg/g
EPA/AA Mean change from Baseline, Mean (SD) (Ethyl-EPA 1 g, Day 42): 0.1 (0.06)
DGLA Baseline Mean (SD) (Ethyl-EPA 1 g): 23.0 (5.19) μg/g
DPAn-3 Baseline Mean (SD) (Ethyl-EPA 1 g): 34.1 (5.43) μg/g
EPA/AA Baseline Mean (SD) (Ethyl-EPA 1 g): 0.1 (0.07)
DPAn-3 1 or 2 g versus 4 g, LS Mean (Ethyl-EPA 2 g versus 4 g, p-value 0.002): -2.5 µg/g
DGLA 1 or 2 g versus 4 g, LS Mean (Ethyl-EPA 2 g versus 4 g, p-value 0.032): 1.5 µg/g
EPA/AA 1 or 2 g versus 4 g, LS Mean (Ethyl-EPA 2 g versus 4 g, p-value <0.001): −0.11
DGLA Mean change from Baseline, Mean (SD) (Ethyl-EPA 2 g, Day 14): −2.6 (3.54) μg/g
DPAn-3 Mean change from Baseline, Mean (SD) (Ethyl-EPA 2 g, Day 14): 5.6 (6.28) μg/g
EPA/AA Mean change from Baseline, Mean (SD) (Ethyl-EPA 2 g, Day 14): 0.2 (0.04)
DGLA Mean change from Baseline, Mean (SD) (Ethyl-EPA 2 g, Day 28): −4.5 (3.58) μg/g
DPAn-3 Mean change from Baseline, Mean (SD) (Ethyl-EPA 2 g, Day 28): 9.4 (6.74) μg/g
EPA/AA Mean change from Baseline, Mean (SD) (Ethyl-EPA 2 g, Day 28): 0.02 (0.06)
DGLA Mean change from Baseline, Mean (SD) (Ethyl-EPA 2 g, Day 42): −5.3 (3.65) μg/g
DPAn-3 Mean change from Baseline, Mean (SD) (Ethyl-EPA 2 g, Day 42): 13.2 (7.23) μg/g
EPA/AA Mean change from Baseline, Mean (SD) (Ethyl-EPA 2 g, Day 42): 0.3 (0.06)
DGLA Baseline Mean (SD) (Ethyl-EPA 2 g): 23.0 (5.76) μg/g
DPAn-3 Baseline Mean (SD) (Ethyl-EPA 2 g): 33.2 (4.51) μg/g
EPA/AA Baseline Mean (SD) (Ethyl-EPA 2 g): 0.1 (0.06)
DGLA Mean change from Baseline, Mean (SD) (Ethyl-EPA 4 g, Day 14): −5.3 (4.10) μg/g
DPAn-3 Mean change from Baseline, Mean (SD) (Ethyl-EPA 4 g, Day 14): 5.4 (5.38) μg/g
EPA/AA Mean change from Baseline, Mean (SD) (Ethyl-EPA 4 g, Day 14): 0.3 (0.07)
DGLA Mean change from Baseline, Mean (SD) (Ethyl-EPA 4 g, Day 28): −7.1 (4.63) μg/g
DPAn-3 Mean change from Baseline, Mean (SD) (Ethyl-EPA 4 g, Day 28): 12.4 (6.98) μg/g
EPA/AA Mean change from Baseline, Mean (SD) (Ethyl-EPA 4 g, Day 28): 0.4 (0.11)
DGLA Mean change from Baseline, Mean (SD) (Ethyl-EPA 4 g, Day 42): −8.0 (4.98) μg/g
DPAn-3 Mean change from Baseline, Mean (SD) (Ethyl-EPA 4 g, Day 42): 16.2 (10.07) μg/g
EPA/AA Mean change from Baseline, Mean (SD) (Ethyl-EPA 4 g, Day 42): 0.4 (0.14)
DGLA Baseline Mean (SD) (Ethyl-EPA 4 g): 24.0 (5.77) μg/g
DPAn-3 Baseline Mean (SD) (Ethyl-EPA 4 g): 34.5 (4.34) μg/g
EPA/AA Baseline Mean (SD) (Ethyl-EPA 4 g): 0.1 (0.04)
